Key:
Experiment in all cases: DNS reducing sugar assay on acid-swollen cellulose
Format in all cases: biochemical
ExgS = target: T1, ExgS (Clostridium cellulovorans, UniProt D9SS72); conditions: 5 mg/ml cellobiose; 0.5 % acid-swollen cellulose, 20 nmol/ml enzyme alone, 50 mM acetate pH 6.3, 2.5 mM CaCl2, 37 C
T1 construct: gene Clocel_2823; dockerin-bearing cellulosomal subunit
T1 sequence (D9SS72 1-727): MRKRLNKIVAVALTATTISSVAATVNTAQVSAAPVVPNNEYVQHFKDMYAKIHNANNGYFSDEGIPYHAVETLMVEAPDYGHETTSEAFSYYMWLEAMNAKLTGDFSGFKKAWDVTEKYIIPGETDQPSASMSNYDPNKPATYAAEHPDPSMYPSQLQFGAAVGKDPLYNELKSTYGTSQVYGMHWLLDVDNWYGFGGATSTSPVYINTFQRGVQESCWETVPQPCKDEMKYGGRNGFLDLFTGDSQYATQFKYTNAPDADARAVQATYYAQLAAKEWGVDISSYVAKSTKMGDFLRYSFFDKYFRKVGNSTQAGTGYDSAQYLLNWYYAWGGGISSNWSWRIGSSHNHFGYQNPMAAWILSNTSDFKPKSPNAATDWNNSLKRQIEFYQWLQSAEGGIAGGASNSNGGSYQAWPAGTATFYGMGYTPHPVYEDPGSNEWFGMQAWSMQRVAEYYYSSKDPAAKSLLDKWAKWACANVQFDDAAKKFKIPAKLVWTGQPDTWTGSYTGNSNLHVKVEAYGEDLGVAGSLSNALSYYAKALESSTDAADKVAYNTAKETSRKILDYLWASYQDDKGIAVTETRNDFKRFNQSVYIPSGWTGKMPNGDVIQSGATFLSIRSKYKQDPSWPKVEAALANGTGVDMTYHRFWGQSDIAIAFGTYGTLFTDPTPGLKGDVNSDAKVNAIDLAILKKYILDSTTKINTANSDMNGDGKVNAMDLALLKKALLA
Text: DNS reducing sugar assay on acid-swollen cellulose on ExgS

EngK = target: T2, EngK (Clostridium cellulovorans, UniProt D9SS70); conditions: 5 mg/ml cellobiose; 0.5 % acid-swollen cellulose, 20 nmol/ml enzyme alone, 50 mM acetate pH 6.3, 2.5 mM CaCl2, 37 C; cellobiose also main product
T2 construct: gene Clocel_2821
T2 sequence (D9SS70 1-892 limits assumed): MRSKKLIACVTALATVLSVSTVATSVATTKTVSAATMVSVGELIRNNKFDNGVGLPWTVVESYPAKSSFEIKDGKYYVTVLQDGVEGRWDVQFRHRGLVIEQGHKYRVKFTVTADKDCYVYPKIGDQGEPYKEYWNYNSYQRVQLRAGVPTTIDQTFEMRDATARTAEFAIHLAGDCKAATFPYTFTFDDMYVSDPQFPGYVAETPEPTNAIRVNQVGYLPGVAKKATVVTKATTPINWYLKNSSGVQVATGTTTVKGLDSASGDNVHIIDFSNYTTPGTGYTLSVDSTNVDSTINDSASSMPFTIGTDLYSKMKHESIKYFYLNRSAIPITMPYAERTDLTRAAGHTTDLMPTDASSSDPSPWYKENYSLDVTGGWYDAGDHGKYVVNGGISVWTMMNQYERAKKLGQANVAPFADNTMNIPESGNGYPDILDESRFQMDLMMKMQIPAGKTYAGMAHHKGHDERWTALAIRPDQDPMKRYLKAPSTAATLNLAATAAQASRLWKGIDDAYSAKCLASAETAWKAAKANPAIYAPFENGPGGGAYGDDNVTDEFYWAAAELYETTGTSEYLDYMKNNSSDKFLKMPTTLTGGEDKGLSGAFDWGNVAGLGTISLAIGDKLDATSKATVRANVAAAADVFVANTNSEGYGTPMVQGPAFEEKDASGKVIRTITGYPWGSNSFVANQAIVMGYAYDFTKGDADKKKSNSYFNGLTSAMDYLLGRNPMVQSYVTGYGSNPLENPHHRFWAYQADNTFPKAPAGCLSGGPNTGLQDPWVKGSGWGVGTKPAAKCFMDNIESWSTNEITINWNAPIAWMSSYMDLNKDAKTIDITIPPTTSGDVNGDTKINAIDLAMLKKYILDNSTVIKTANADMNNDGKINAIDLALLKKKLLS
Text: DNS reducing sugar assay on acid-swollen cellulose on EngK

EngH = target: T3, EngH (Clostridium cellulovorans, UniProt O65987); conditions: 5 mg/ml cellobiose; 0.5 % acid-swollen cellulose, 20 nmol/ml enzyme alone, 50 mM acetate pH 6.3, 2.5 mM CaCl2, 37 C
T3 construct: HisTrap purified from supernatant; trigger factor tag removed by HRV-3C protease
T3 sequence (O65987 14-715): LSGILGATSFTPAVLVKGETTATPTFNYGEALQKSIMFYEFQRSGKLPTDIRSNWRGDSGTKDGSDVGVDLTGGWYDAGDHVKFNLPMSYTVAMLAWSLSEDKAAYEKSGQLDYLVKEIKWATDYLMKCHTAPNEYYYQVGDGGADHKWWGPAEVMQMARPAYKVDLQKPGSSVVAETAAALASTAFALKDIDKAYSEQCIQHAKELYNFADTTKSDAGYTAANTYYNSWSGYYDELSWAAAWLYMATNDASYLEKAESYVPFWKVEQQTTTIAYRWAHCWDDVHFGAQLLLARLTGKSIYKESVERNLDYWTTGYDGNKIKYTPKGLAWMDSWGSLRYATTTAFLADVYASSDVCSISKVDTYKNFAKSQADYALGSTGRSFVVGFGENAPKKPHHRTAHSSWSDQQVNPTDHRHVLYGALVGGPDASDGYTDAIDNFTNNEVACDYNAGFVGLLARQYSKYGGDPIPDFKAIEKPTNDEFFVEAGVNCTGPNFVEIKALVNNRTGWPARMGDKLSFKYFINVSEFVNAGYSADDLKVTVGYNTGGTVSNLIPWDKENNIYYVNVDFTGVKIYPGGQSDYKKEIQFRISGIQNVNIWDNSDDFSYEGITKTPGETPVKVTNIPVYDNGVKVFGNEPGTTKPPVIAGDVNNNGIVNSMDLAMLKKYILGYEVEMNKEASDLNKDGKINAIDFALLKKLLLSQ
Text: DNS reducing sugar assay on acid-swollen cellulose on EngH

Inhibition rate (%) (ExgS): 98.5%
Inhibition rate (%) (EngK): 90.1%
Inhibition rate (%) (EngH): 98.7%
SMILES: OC[C@H]1O[C@@H](O[C@H]2[C@H](O)[C@@H](O)C(O)O[C@@H]2CO)[C@H](O)[C@@H](O)[C@@H]1O (stereo partly drawn) [cellobiose]

— article PMC4700033, “Synergistic properties of cellulases from Clostridium cellulovorans in the presence of cellobiose” (AMB Express, 2016)
